{"source": "ChEMBL document CHEMBL1671792", "about": "“Conformationally constrained farnesoid X receptor (FXR) agonists: heteroaryl replacements of the naphthalene” (Bioorg Med Chem Lett, 2011)", "key": {"Mus musculus [1]": {"test_system": "Mus musculus", "assay": "Antidiabetic activity in diet-induced obese mouse assessed as triglyceride level at 10 mg/kg, po for 4 weeks (reference value: 54.4 +/-1.5 mg/dL)", "type": "functional"}, "Mus musculus [2]": {"test_system": "Mus musculus", "assay": "Antidiabetic activity in diet-induced obese mouse assessed as NEFA level at 30 mg/kg, po for 4 weeks (reference value: 0.46 +/-0.02 mEq/dL)", "type": "functional"}, "Mus musculus [3]": {"test_system": "Mus musculus", "assay": "Antidiabetic activity in diet-induced obese mouse assessed as change in body weight at 100 mg/kg, po for 4 weeks measured after 4 weeks (reference value: 29.1+/-0.8 g)", "type": "functional"}, "Mus musculus [4]": {"test_system": "Mus musculus", "assay": "Antidiabetic activity in diet-induced obese mouse assessed as beta-hydroxybutyrate level at 10 mg/kg, po for 4 weeks (reference value: 1.7 +/-0.1 mg/dL)", "type": "functional"}, "Mus musculus [5]": {"test_system": "Mus musculus", "assay": "Antidiabetic activity in diet-induced obese mouse assessed as change in body weight at 100 mg/kg, po for 4 weeks measured after 3 weeks (reference value: 29.1+/-0.8 g)", "type": "functional"}, "[6]": {"assay": "Oral bioavailability in rat", "type": "ADME, organism-based", "settings": "in vivo"}, "Mus musculus [7]": {"test_system": "Mus musculus", "assay": "Antidiabetic activity in diet-induced obese mouse assessed as total cholesterol level at 100 mg/kg, po for 4 weeks (reference value: 140.0 +/-2.8 mg/dL)", "type": "functional"}, "Mus musculus [8]": {"test_system": "Mus musculus", "assay": "Antidiabetic activity in diet-induced obese mouse assessed as change in body weight at 10 mg/kg, po for 4 weeks measured after 4 weeks (reference value: 30.3+/-0.8 g)", "type": "functional"}, "[9]": {"assay": "Oral bioavailability in Beagle dog", "type": "ADME, organism-based, Canis lupus familiaris", "settings": "in vivo"}, "Bile acid receptor": {"target": "T1, Bile acid receptor (Homo sapiens, UniProt Q96RI1)", "T1 sequence (Q96RI1 whole entry)": "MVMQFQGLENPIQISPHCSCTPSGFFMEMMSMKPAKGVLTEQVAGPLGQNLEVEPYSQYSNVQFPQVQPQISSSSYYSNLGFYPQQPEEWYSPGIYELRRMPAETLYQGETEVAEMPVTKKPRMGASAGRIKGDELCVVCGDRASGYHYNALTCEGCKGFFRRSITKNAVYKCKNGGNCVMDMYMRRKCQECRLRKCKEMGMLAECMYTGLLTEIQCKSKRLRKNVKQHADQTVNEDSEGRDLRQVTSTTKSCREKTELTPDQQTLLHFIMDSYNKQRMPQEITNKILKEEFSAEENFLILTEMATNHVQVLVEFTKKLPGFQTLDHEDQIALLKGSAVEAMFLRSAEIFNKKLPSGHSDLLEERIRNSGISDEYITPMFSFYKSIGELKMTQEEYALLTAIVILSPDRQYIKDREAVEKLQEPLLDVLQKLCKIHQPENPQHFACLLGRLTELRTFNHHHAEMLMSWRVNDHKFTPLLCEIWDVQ", "assay": "Agonist activity at human FXR LBD iexpressed in monkey CV-1 cells assessed as transactivation of luciferase reporter gene expression", "type": "functional, cell-based"}, "Mus musculus [10]": {"test_system": "Mus musculus", "assay": "Antidiabetic activity in diet-induced obese mouse assessed as change in body weight at 10 mg/kg, po for 4 weeks measured after 2 weeks (reference value: 30.3+/-0.8 g)", "type": "functional"}, "Homo sapiens [11]": {"organism": "Homo sapiens", "assay": "Selectivity ratio of EC50 for human FXR to EC50 for human LRH"}, "Mus musculus [12]": {"test_system": "Mus musculus", "assay": "Antidiabetic activity in diet-induced obese mouse assessed as total cholesterol level at 30 mg/kg, po for 4 weeks (reference value: 140.0 +/-2.8 mg/dL)", "type": "functional"}, "Mus musculus [13]": {"test_system": "Mus musculus", "assay": "Antidiabetic activity in diet-induced obese mouse assessed as serum glucose level at 30 mg/kg, po for 4 weeks (reference value: 316.5 +/-13.2 mg/dL)", "type": "functional"}, "[14]": {"target": "T2, Bile acid receptor (Homo sapiens) (UniProt Q96RI1)", "T2 sequence (whole entry)": "T1 sequence (Q96RI1 whole entry)", "assay": "Agonist activity at human FXR LBD assessed as SRC1 peptide recruitment by FRET assay relative to GW 4064", "type": "functional"}, "Cytochrome P450 2C19": {"target": "Cytochrome P450 2C19 (Homo sapiens, UniProt P33261)", "sequence (P33261 whole entry)": "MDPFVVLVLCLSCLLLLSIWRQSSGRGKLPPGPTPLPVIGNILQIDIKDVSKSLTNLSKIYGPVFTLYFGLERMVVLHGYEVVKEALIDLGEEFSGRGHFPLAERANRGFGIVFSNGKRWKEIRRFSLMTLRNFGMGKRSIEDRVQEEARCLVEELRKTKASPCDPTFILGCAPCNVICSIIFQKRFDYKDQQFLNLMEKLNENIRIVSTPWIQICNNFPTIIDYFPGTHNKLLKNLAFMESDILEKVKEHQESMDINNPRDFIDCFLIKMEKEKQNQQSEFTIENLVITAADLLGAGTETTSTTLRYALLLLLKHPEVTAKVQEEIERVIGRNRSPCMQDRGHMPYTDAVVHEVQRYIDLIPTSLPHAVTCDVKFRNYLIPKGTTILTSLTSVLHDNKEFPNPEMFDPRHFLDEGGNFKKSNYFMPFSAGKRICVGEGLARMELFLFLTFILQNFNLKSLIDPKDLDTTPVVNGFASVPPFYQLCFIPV", "assay": "Inhibition of CYP2C19 in human liver microsome", "type": "microsomes"}, "Mus musculus [15]": {"test_system": "Mus musculus", "assay": "Dose normalized AUC in orally dosed mouse", "type": "ADME, organism-based", "settings": "in vivo, po"}, "Homo sapiens [16]": {"organism": "Homo sapiens", "assay": "Selectivity ratio of EC50 for human FXR to EC50 for human PPARdelta"}, "Cytochrome P450 1A2": {"target": "T3, Cytochrome P450 1A2 (Homo sapiens, UniProt P05177)", "T3 sequence (P05177 whole entry)": "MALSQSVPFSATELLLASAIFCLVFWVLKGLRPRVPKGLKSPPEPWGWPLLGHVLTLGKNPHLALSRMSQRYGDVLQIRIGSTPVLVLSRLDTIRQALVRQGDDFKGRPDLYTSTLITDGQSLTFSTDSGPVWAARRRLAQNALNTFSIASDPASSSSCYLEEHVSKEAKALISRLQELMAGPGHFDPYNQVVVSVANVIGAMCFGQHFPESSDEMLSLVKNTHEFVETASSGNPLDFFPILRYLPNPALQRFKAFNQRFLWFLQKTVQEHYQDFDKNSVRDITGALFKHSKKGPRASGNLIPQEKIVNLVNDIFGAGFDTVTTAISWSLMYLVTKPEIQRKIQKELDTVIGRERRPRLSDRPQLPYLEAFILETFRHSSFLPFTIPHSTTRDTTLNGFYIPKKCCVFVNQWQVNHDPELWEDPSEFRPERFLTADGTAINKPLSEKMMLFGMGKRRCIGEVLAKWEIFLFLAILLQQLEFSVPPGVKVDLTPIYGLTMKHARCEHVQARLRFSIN", "assay": "Inhibition of CYP1A2 in human liver microsome", "type": "microsomes"}, "Mus musculus [17]": {"test_system": "Mus musculus", "assay": "Antidiabetic activity in diet-induced obese mouse assessed as triglyceride level at 30 mg/kg, po for 4 weeks (reference value: 54.4 +/-1.5 mg/dL)", "type": "functional"}, "Canis familiaris": {"test_system": "Canis familiaris", "assay": "Dose normalized AUC in orally dosed Beagle dog", "type": "ADME, organism-based, Canis lupus familiaris", "settings": "in vivo, po"}, "Homo sapiens [18]": {"organism": "Homo sapiens", "assay": "Selectivity ratio of EC50 for human FXR to EC50 for human LXRbeta"}, "Mus musculus [19]": {"test_system": "Mus musculus", "assay": "Antidiabetic activity in diet-induced obese mouse assessed as change in body weight at 10 mg/kg, po for 4 weeks measured after 1 week (reference value: 30.3+/-0.8 g)", "type": "functional"}, "Mus musculus [20]": {"test_system": "Mus musculus", "assay": "Antidiabetic activity in diet-induced obese mouse assessed as serum insulin level at 10 mg/kg, po for 4 weeks (reference value: […])", "type": "functional"}, "Mus musculus [21]": {"test_system": "Mus musculus", "assay": "Antidiabetic activity in diet-induced obese mouse assessed as total cholesterol level at 10 mg/kg, po for 4 weeks (reference value: 140.0 +/-2.8 mg/dL)", "type": "functional"}, "Mus musculus [22]": {"test_system": "Mus musculus", "assay": "Antidiabetic activity in diet-induced obese mouse assessed as change in body weight at 10 mg/kg, po for 4 weeks measured after 3 weeks (reference value: 30.3+/-0.8 g)", "type": "functional"}, "Mus musculus [23]": {"test_system": "Mus musculus", "assay": "Antidiabetic activity in diet-induced obese mouse assessed as triglyceride level at 100 mg/kg, po for 4 weeks (reference value: 54.4 +/-1.5 mg/dL)", "type": "functional"}, "[24]": {"target": "T2, Bile acid receptor (Homo sapiens)", "assay": "Agonist activity at human FXR LBD iexpressed in monkey CV-1 cells assessed as transactivation of luciferase reporter gene expression relative to GW 4064", "type": "functional, cell-based", "design": "concentration or dose not given beside the values"}, "[25]": {"assay": "Volume of distribution at steady state in iv dosed cynomolgus monkey", "type": "ADME, organism-based, Macaca fascicularis", "settings": "in vivo, read-out: Vdss"}, "Homo sapiens [26]": {"organism": "Homo sapiens", "assay": "Selectivity ratio of EC50 for human FXR to EC50 for human PPARalpha"}, "Mus musculus [27]": {"test_system": "Mus musculus", "assay": "Antidiabetic activity in diet-induced obese mouse assessed as change in body weight at 30 mg/kg, po for 4 weeks measured after 2 weeks (reference value: 29.6+/-0.9 g)", "type": "functional"}}, "data": [{"smiles": "CC(C)c1onc(-c2c(Cl)cccc2Cl)c1COc1ccc(-c2ccc3nc(C(=O)O)ccc3c2)cc1", "values": [{"measurement": "Activity", "setting": "Mus musculus [1]", "value": 55.8, "unit": "mg/dL"}, {"measurement": "Activity", "setting": "Mus musculus [2]", "value": 0.52, "unit": "mEq/dL"}, {"measurement": "Activity", "setting": "Mus musculus [3]", "value": 25.6, "unit": "g"}, {"measurement": "Activity", "setting": "Mus musculus [4]", "value": 1.7, "unit": "mg/dL"}, {"measurement": "Activity", "setting": "Mus musculus [5]", "value": 24.1, "unit": "g"}, {"measurement": "bioavailability", "setting": "[6]", "value": 23, "unit": "%"}, {"measurement": "Activity", "setting": "Mus musculus [7]", "value": 87.9, "unit": "mg/dL"}, {"measurement": "Activity", "setting": "Mus musculus [8]", "value": 29, "unit": "g"}, {"measurement": "bioavailability", "setting": "[9]", "value": 23, "unit": "%"}, {"measurement": "EC50", "setting": "Bile acid receptor", "value": 0.05, "unit": "µM"}, {"measurement": "Activity", "setting": "Mus musculus [10]", "value": 29.3, "unit": "g"}, {"measurement": "Ratio EC50", "setting": "Homo sapiens [11]", "value": 100}, {"measurement": "Activity", "setting": "Mus musculus [12]", "value": 99.6, "unit": "mg/dL"}, {"measurement": "Activity", "setting": "Mus musculus [13]", "value": 282.2, "unit": "mg/dL"}, {"measurement": "Activity", "setting": "[14]", "value": 105, "unit": "%"}, {"measurement": "IC50", "setting": "Cytochrome P450 2C19", "value": "> 33", "unit": "µM"}, {"measurement": "AUC", "setting": "Mus musculus [15]", "value": 310, "unit": "ng·kg·h/mg/mL"}, {"measurement": "Ratio EC50", "setting": "Homo sapiens [16]", "value": 100}, {"measurement": "IC50", "setting": "Cytochrome P450 1A2", "value": 21, "unit": "µM"}, {"measurement": "Activity", "setting": "Mus musculus [17]", "value": 51.1, "unit": "mg/dL"}, {"measurement": "AUC", "setting": "Canis familiaris", "value": 1260, "unit": "ng·kg·h/mg/mL"}, {"measurement": "Ratio EC50", "setting": "Homo sapiens [18]", "value": 100}, {"measurement": "Activity", "setting": "Mus musculus [19]", "value": 29.4, "unit": "g"}, {"measurement": "Activity", "setting": "Mus musculus [20]", "value": 0.63, "unit": "ng/mL"}, {"measurement": "Activity", "setting": "Mus musculus [21]", "value": 108.5, "unit": "mg/dL"}, {"measurement": "Activity", "setting": "Mus musculus [22]", "value": 29, "unit": "g"}, {"measurement": "Activity", "setting": "Mus musculus [23]", "value": 47.4, "unit": "mg/dL"}, {"measurement": "Activity", "setting": "[24]", "value": 102, "unit": "%"}, {"measurement": "Vd", "setting": "[25]", "value": 0.15, "unit": "L/kg"}, {"measurement": "Ratio EC50", "setting": "Homo sapiens [26]", "value": 100}, {"measurement": "Activity", "setting": "Mus musculus [27]", "value": 27.8, "unit": "g"}]}]}
